# Data from patent EP0021836A1, “Clavulanic acid derivatives, process for their preparation and pharmaceutical compositions containing them” (BEECHAM GROUP PLC, priority 1979, dated 1981).
# “And” between values parts separate entries of the source, which are not always exact repeats. Identical values can stand only once.
# Columns and labels:
# [1] = system: E. coli strain E96; test: in-vivo subcutaneous synergistic activity with amoxycillin against intraperitoneal infection in mice; settings: Escherichia coli, sc, amoxycillin alone, read-out: CD50 (the source's name)
# [2] = system: E. coli strain E124; test: as above; settings: Escherichia coli, sc, amoxycillin alone, read-out: CD50 (the source's name)
# [3] = system: Staph Russell; test: standard MIC test (synergistic and antibacterial properties); type: cell-based; settings: substance alone, in µg/mL (unit assumed)
# [4] = system: E.coli JT39; test: as above; type: cell-based; settings: substance alone, unit assumed
# [5] = system: Kleb E70; test: as above; type: cell-based; settings: substance alone; Kleb E70 (printed Kleb Eto in the 1st table); unit assumed
Structure (SMILES),ED50 [1],ED50 [2],MIC [3],MIC [4],MIC [5]
CC1(C)S[C@@H]2[C@H](NC(=O)[C@H](N)c3ccc(O)cc3)C(=O)N2[C@H]1C(=O)O [Amoxycillin],> 1000 mg/kg,> 1000 mg/kg,,,
O=C(O)[C@H]1/C(=C/CO)O[C@@H]2CC(=O)N21 [Clavulanic acid],,,16 and 31.2,16 µg/mL,
"CC(C)NCC=C1OC2CC(=O)N2C1C(=O)O (stereo not shown) [Example 1, 9-N-Isopropylaminodeoxyclavulanic acid]",,,8,31.2 µg/mL,500 µg/mL
"O=C(O)C1C(=CCNC2CCCC2)OC2CC(=O)N21 (stereo not shown) [Example 2, 9-N-Cyclopentylaminodeoxyclavulanic acid]",,,16,31.2 µg/mL,> 500 µg/mL
"O=C(O)C1C(=CCNC2CCCCC2)OC2CC(=O)N21 (stereo not shown) [Example 3, 9-N-Cyclohexylaminodeoxyclavulanic acid]",,,8.0,62.5 µg/mL,500 µg/mL
